Reference: paper PMC4394430, “Licochalcone A, a Polyphenol Present in Licorice, Suppresses UV-Induced COX-2 Expression by Targeting PI3K, MEK1, and B-Raf” (International Journal of Molecular Sciences, 2015)

Legend:
[1] = target: T1, B-Raf (Homo sapiens, UniProt P15056); conditions: 10 and 100 uM ATP; 4 C; competitive with LicoA
T1 construct: gene BRAF

[2] = target: T1, B-Raf; test: LicoA-Sepharose 4B pull-down, immunoblot; type: binding; conditions: pH 7.5; 4 C; immobilised LicoA; blocked by ATP (ATP-competitive)
[3] = target: T2, MEK1 (Homo sapiens, UniProt Q02750); test: LicoA-Sepharose 4B pull-down, immunoblot; type: binding; conditions: pH 7.5; 4 C; immobilised LicoA; not blocked by ATP (non-competitive)
T2 construct: gene MAP2K1

[4] = target: T1, B-Raf; test: […] kinase assay, inactive MEK1 and MBP peptide; type: biochemical; conditions: 5 and 10 uM LicoA; pH 7.5; 30 C; coupled readout; ATP-competitive

T1 sequence (P15056 2-766): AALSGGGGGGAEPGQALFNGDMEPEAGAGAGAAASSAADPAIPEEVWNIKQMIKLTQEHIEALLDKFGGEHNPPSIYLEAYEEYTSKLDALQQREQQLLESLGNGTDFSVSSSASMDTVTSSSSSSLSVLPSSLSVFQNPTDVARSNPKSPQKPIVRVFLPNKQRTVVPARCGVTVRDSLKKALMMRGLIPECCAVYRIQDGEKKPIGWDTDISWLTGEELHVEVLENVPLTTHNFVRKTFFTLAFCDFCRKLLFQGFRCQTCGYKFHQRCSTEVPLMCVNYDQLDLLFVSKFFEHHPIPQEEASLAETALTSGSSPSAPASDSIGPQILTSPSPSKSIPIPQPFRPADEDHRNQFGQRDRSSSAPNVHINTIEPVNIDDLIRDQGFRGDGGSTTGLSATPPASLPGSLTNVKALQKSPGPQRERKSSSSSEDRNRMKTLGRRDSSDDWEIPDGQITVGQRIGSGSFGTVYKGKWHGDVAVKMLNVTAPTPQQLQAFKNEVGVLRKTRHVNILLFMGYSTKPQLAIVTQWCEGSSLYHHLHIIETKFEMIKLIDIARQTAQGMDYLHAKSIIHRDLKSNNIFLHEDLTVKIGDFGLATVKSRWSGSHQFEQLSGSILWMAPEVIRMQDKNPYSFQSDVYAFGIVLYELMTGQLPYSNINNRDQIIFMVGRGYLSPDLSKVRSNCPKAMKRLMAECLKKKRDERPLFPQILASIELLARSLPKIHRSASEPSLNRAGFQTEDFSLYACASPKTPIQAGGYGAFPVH
T2 sequence (Q02750 whole entry): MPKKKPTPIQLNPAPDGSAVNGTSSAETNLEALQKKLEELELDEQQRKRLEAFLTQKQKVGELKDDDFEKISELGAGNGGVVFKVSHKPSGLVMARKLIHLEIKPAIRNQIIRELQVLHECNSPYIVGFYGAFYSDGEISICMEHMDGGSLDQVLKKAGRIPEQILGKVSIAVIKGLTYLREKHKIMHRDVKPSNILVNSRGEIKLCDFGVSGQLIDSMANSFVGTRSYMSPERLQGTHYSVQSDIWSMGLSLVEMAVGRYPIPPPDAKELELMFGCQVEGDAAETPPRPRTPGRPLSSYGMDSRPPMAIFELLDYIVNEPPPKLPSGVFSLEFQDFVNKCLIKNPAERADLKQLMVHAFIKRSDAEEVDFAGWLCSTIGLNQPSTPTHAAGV

| SMILES | ATP competition with LicoA-Sepharose 4B pull-down [1] | LicoA-Sepharose 4B pull-down, immunoblot [2] | LicoA-Sepharose 4B pull-down, immunoblot [3] | % inhibition [4] |
| --- | --- | --- | --- | --- |
| Nc1ncnc2c1ncn2[C@@H]1O[C@H](COP(=O)(O)OP(=O)(O)OP(=O)(O)O)[C@@H](O)[C@H]1O [ATP] | ATP treatment blocked the binding ability of LicoA with PI3K (Figure 4B) and B-Raf (Figure 4F) |  |  |  |
| C=CC(C)(C)c1cc(/C=C/C(=O)c2ccc(O)cc2)c(OC)cc1O [LicoA, Licochalcone A] |  | LicoA binds with PI3K and B-Raf in competition with ATP | LicoA binds with MEK1 in an ATP non-competitive manner | strongly blocked B-Raf (Figure 3C) activity in a dose-dependent manner |
